For one experiment, the target named is T1, NPRA (Homo sapiens, UniProt P16066).
T1 sequence (P16066 33-1061): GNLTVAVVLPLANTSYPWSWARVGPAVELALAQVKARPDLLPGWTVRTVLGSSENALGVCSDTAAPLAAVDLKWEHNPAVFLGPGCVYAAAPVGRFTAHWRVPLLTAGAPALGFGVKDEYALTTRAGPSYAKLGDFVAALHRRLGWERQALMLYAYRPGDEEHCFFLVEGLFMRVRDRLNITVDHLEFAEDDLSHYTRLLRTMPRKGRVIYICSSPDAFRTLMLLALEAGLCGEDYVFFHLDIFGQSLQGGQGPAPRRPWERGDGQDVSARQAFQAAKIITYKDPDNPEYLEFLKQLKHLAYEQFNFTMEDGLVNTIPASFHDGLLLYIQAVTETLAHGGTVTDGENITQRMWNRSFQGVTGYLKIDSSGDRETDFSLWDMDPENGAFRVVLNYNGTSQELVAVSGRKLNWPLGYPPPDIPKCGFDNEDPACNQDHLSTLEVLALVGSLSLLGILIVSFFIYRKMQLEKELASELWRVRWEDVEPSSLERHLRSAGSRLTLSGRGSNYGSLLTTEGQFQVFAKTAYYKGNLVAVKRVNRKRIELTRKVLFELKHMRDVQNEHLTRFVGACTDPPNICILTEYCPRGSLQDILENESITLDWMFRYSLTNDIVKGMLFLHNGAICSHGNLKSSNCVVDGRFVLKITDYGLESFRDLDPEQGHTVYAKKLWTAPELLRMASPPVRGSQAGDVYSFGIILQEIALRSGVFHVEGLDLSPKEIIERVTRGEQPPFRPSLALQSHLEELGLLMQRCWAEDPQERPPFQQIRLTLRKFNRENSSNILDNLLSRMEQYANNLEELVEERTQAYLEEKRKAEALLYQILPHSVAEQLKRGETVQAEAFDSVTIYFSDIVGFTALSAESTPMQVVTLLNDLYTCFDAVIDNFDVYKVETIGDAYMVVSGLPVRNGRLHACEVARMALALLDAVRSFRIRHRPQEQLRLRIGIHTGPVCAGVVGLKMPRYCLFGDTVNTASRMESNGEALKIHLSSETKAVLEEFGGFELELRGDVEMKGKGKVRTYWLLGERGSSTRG
To be noted: background statement; without activating the linked guanylyl cyclase; cited from earlier work.

The test system of experiment [1] is cGMP production in murine primary myoblasts. Briefly: cGMP production in skeletal myoblast culture exposed to ANP and musclin. It counts as cell-based. To be noted: n=3. The protocol:
Cyclic GMP levels were measured using cyclicGMP EIA kit (Cayman Chemical Company, Ann Arbor, Mich.). Mice were exercised for 5 days, 12 m/min, 45 min before tissue collection. At the day of the experiment mice were exercised 12 m/min, 20 min, sedated with isoflurane and gastrocnemius muscle tissue was collected. Cyclic nucleotides were extracted using 5% trichloracetic acid. Samples were acetylated and used for cGMP level measurements according to the manufacturer's protocol.
Mouse primary myoblasts were isolated from gastrocnemius muscle of 4-6 weeks old mice. Fresh muscle tissue was digested with 2 mg/ml collagenase II in DMEM-F12 for 1.5 h at 37° C.; then 30 min at 37° C. with 1 mg/ml collagenase II and 0.5 mg/ml dispase in DMEM-F12. Tissue was ground and passed through a 100 μm then 70 μm cell strainer and spun at 1000 rpm for 10 min. Myoblasts were resuspended in DMEM-F12 supplemented with 20% FBS, 40 ng/ml bFGF, non-essential amino acids, 1 mM β-mercaptoethanol. Cells were plated on matrigel coated dishes. Cells were maintained in DMEM-F12 supplemented with 20% FBS, 10 ng/ml bFGF, non-essential amino acids, 1 mM β-mercaptoethanol until 80% confluent. Then they were differentiated in DMEM-F12 supplemented with 2% FBS and insulin-transferrin-selenium for 10 days. Human skeletal myoblast primary culture (lot #SLSK002, Zenbio, Research Triangle Park, NC) was maintained according to the supplier's manual.

As to “H-SFSGFGSPLDRLSAGSVEHRGKQRKAVDHSKKR-OH [musclin]”, the “binding to NPRA” value on NPRA is on record as “weak binding”. In addition, the cGMP production was determined as 0.104±0.006 fmol/μg protein in experiment [1] (1 μM musclin without ANP) and 0.117±0.003 fmol/μg protein in experiment [1] (5 μM musclin without ANP).

The values above are taken from US11634466B2, “Musclin peptides and methods of use thereof” (UNIVERSITY OF IOWA RESEARCH FOUNDATION, priority 2016, dated 2023).
